Data: patent US20070197590A1, “SUBSTITUTED DIPIPERIDINE CCR2 ANTAGONISTS” (priority 2006, published 2007)
pIC50: −log10 of the molar value. Like-named read-outs stand apart in the source and are kept apart here.

How the values were obtained:
CCR2 = biological target: T1, CCR2 (Homo sapiens, UniProt P41597); experiment: MCP-1 Receptor Binding Assay in THP-1 Cells; settings: THP-1 cells, 0.5 nM 125I labeled MCP-1, 2 hours at 30° C.; read-out: Inhibition of MCP-1 Binding IC50
T1 construct: host or cells: THP-1 cells
T1 sequence (P41597 1-360 isoform P41597-2): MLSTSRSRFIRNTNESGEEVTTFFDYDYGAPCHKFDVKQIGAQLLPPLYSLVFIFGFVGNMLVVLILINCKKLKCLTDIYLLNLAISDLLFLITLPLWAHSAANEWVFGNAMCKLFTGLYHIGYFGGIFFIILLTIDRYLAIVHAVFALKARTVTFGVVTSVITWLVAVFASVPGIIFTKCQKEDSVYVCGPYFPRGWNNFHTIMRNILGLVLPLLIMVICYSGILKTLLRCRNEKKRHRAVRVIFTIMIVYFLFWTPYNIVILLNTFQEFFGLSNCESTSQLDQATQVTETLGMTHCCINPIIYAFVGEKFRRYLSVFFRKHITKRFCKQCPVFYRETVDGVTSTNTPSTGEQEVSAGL
How it was run: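 Whole THP-1 cells incubated 2 h at 30° C with 0.5 nM 125I-MCP-1 and varying compound concentrations; bound radioactivity harvested on filters and counted by scintillation. Nonspecific binding with 1 μM cold MCP-1; IC50 for inhibition of binding versus vehicle.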

[1] = test system: MCP-1 induced calcium ion influx in THP-1 cells; experiment: MCP-1 Induced Calcium Mobilization in THP-1 Cells; type: cell-based; settings: for pIC50: 0.2 μM MCP-1, FLIPR, read-out: Inhibition of MCP-1 Induced Calcium Ion Influx IC50
How it was run: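 Fluo-3-loaded (5 μM, 45 min) THP-1 cells preincubated 15 min with compound. Calcium change after 0.2 μM MCP-1 addition read by FLIPR relative to vehicle; IC50 values derived.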

[2] = test system: MCP-1 induced chemotaxis of THP-1 cells; experiment: MCP-1 Induced Chemotaxis in THP-1 Cells; type: cell-based; settings: Homo sapiens, MCP-1 0.01 μg/mL, 3 hours at 37° C., read-out: Inhibition of MCP-1 Induced Chemotaxis IC50
Experimental: MCP-1 induced chemotaxis was run in a 24-well chemotaxis chamber. MCP-1 (0.01 μg/mL) was added to the lower chamber and 100 μL of THP-1 cells (1×10^7 cell/mL) was added to the top chamber. Varying concentrations of test compound were added to the top and bottom chambers. Cells were allowed to chemotax for 3 hours at 37° C. and 5% CO2. An aliquot of the cells that had migrated to the bottom chamber was taken and counted then compared to vehicle.
Table 3 lists IC50 values for inhibition of MCP-1 induced chemotaxis.

[3] = Homo sapiens, THP-1, THP-1 cells

Compound | pIC50 (CCR2) | pIC50 [1, 3] | pIC50 [2] | pIC50 ([1]; THP-1 cells) | inhibition at 25 µM ([1]; Homo sapiens, THP-1, test concentration of 25 μM, given where an IC50 value was not obtained, read-out: Inhibition of MCP-1 Induced Calcium Ion Influx, percent inhibition)
CS(=O)(=O)Nc1ccc2[nH]cc(C3CCN(CC(=O)C4CCN(C(=O)C=Cc5cc(F)c(F)c(F)c5)CC4)CC3)c2c1 [Compound 18, N-{3-[1-(2-oxo-2-{1-[3-(3,4,5-trifluoro-phenyl)-acryloyl]-piperidin-4-yl}-ethyl)-piperidin-4-yl]-1H-indol-5-yl}-methanesulfonamide] | 6.17 | 5.77 | 6.38 |  | 
O=C(Nc1ccc(Cl)c(Cl)c1)N1CCC(C(O)CN2CCC(c3c[nH]c4ncccc34)CC2)CC1 (stereo not drawn) [Compound 24, 4-{1-hydroxy-2-[4-(1H-pyrrolo[2,3-b]pyridin-3-yl)-piperidin-1-yl]-ethyl}-piperidine-1-carboxylic acid (3,4-dichloro-phenyl)-amide] | 7.15 | 6.92 | 7.15 |  | 
O=C(/C=C/c1cc(F)cc(F)c1)N1CCC(C(O)CN2CCC(c3c[nH]c4ncccc34)CC2)CC1 (stereo not drawn) [Compound 20] | 7.30 | 6.64 | 7.70 |  | 
O=C(/C=C/c1cc(F)c(F)c(F)c1)N1CCC(O)(C(O)CN2CCC(c3c[nH]c4ccccc34)CC2)CC1 (stereo not drawn) [Compound 70] | 6.74 | 7.10 | 8.00 |  | 
O=C(Nc1cc(F)cc(F)c1)N1CCC(C(O)CN2CCC(c3c[nH]c4ccccc34)CC2)CC1 (stereo not drawn) [Compound 5, 4-{1-hydroxy-2-[4-(1H-indol-3-yl)-piperidin-1-yl]-ethyl}-piperidine-1-carboxylic acid (3,5-difluoro-phenyl)-amide] | 6.80 | 7.10 | 6.92 |  | 
O=C(Nc1ccc(Cl)c(Cl)c1)N1CCC(C(O)CN2CCC(c3c[nH]c4ccccc34)CC2)CC1 (stereo not drawn) [Compound 4, 4-{1-hydroxy-2-[4-(1H-indol-3-yl)-piperidin-1-yl]-ethyl}-piperidine-1-carboxylic acid (3,4-dichloro-phenyl)-amide] | 7.52 | 7.70 | 8.40 |  | 
O=C(/C=C/c1cc(F)cc(F)c1)N1CCC(C(O)CN2CCC(c3cc[nH]n3)CC2)CC1 (stereo not drawn) [Compound 34] | 6.24 | 4.96 | 6.08 |  | 
O=C(/C=C/c1cc(F)cc(Cl)c1)N1CCC(O)(C(O)CN2CCC(c3c[nH]c4ccccc34)CC2)CC1 (stereo not drawn) [Compound 74] | 7.40 | 8.70 | 7.10 |  | 
COc1ccc(C2CCN(CC(O)C3CCN(C(=S)Nc4cccc(Br)c4)CC3)CC2)cc1 (stereo not drawn) [Compound 16, 4-{1-hydroxy-2-[4-(4-methoxy-phenyl)-piperidin-1-yl]-ethyl}-piperidine-1-carbothioic acid (3-bromo-phenyl)-amide] | 6.89 | 6.01 | 6.52 |  | 
Cc1cccc(C=CC(=O)N2CCC(C(O)CN3CCC(c4c[nH]c5ccc(NS(C)(=O)=O)cc45)CC3)CC2)c1 (stereo not drawn) [Compound 40, N-[3-(1-{2-hydroxy-2-[1-(3-m-tolyl-acryloyl)-piperidin-4-yl]-ethyl}-piperidin-4-yl)-1H-indol-5-yl]-methanesulfonamide] | 7.10 | 6.77 | 7.52 |  | 
O=C(/C=C/c1ccc(F)c(Br)c1)N1CCC(O)(C(O)CN2CCC(c3c[nH]c4ccccc34)CC2)CC1 (stereo not drawn) [Compound 80] | 6.70 | 8.22 | 7.05 |  | 
COc1ccc(C2CCN(CC(N)C3CCN(C(=O)/C=C/c4cc(F)c(F)c(F)c4)CC3)CC2)cc1 (stereo not drawn) [Compound 65] | 7.10 | 7.40 | 6.60 |  | 
COc1ccc(C2CCN(CC(O)C3CCN(C(=O)Nc4ccc(Cl)c(Cl)c4)CC3)CC2)cc1 (stereo not drawn) [Compound 15, 4-{1-hydroxy-2-[4-(4-methoxy-phenyl)-piperidin-1-yl]-ethyl}-piperidine-1-carboxylic acid (3,4-dichloro-phenyl)-amide] | 7.52 | 6.96 | 7.70 |  | 
COC(=O)NC(CN1CCC(c2ccc(OC)cc2)CC1)C1CCN(C(=O)C=Cc2cc(F)c(F)c(F)c2)CC1 (stereo not drawn) [Compound 67, (2-[4-(4-methoxy-phenyl)-piperidin-1-yl]-1-{1-[3-(3,4,5-trifluoro-phenyl)-acryloyl]-piperidin-4-yl}-ethyl)-carbamic acid methyl ester] | 6.62 | 6.52 | 6.15 |  | 
COc1ccc(C2CCN(CC(O)C3(O)CCN(C(=O)/C=C/c4cc(F)c(F)c(F)c4)CC3)CC2)cc1 (stereo not drawn) [Compound 88] | 6.77 | 6.01 | 7.52 |  | 
O=C(/C=C/c1ccc(Cl)c(Cl)c1)N1CCC(C(O)CN2CCC(c3c[nH]c4ncccc34)CC2)CC1 (stereo not drawn) [Compound 23] | 7.70 | 8.15 | 7.70 |  | 
O=C(O)C(CC1CCN(C(=O)C=Cc2cc(F)cc(F)c2)CC1)N1CCC(c2c[nH]c3ccccc23)CC1 (stereo not drawn) [Compound 61, 3-{1-[3-(3,5-difluoro-phenyl)-acryloyl]-piperidin-4-yl}-2-[4-(1H-indol-3-yl)-piperidin-1-yl]-propionic acid] | 6.08 | 5.55 | 6.62 |  | 
OC(CN1CCC(c2c[nH]c3ccccc23)CC1)C1CCN(C(=S)Nc2cccc(Br)c2)CC1 (stereo not drawn) [Compound 9, 4-{1-hydroxy-2-[4-(1H-indol-3-yl)-piperidin-1-yl]-ethyl}-piperidine-1-carbothioic acid (3-bromo-phenyl)-amide] | 7.30 | 6.92 | 7.70 |  | 
CS(=O)(=O)Nc1ccc2[nH]cc(C3CCN(CC(O)C4CCN(C(=O)C=Cc5cc(F)cc(F)c5)CC4)CC3)c2c1 (stereo not drawn) [Compound 41, N-{3-[1-(2-{1-[3-(3,5-difluoro-phenyl)-acryloyl]-piperidin-4-yl}-2-hydroxy-ethyl)-piperidin-4-yl]-1H-indol-5-yl}-methanesulfonamide] | 7.40 | 7.05 | 7.70 |  | 

Now from value to compound, other results behind:

pIC50 (CCR2) | pIC50 [1, 3] | pIC50 [2] | pIC50 ([1]; THP-1 cells) | Compound | inhibition at 25 µM ([1]; Homo sapiens, THP-1, test concentration of 25 μM, given where an IC50 value was not obtained, read-out: Inhibition of MCP-1 Induced Calcium Ion Influx, percent inhibition)
6.34 | 6.03 | 8.40 |  | O=C(Nc1ccc(Cl)c(Cl)c1)N1CCC(O)(C(O)CN2CCC(c3c[nH]c4ccc(F)cc34)CC2)CC1 (stereo not drawn) [Compound 167, 4-{2-[4-(5-fluoro-1H-indol-3-yl)-piperidin-1-yl]-1-hydroxy-ethyl}-4-hydroxy-piperidine-1-carboxylic acid (3,4-dichloro-phenyl)-amide] | 
6.59 |  | 6.59 |  | O=C(Nc1cc(F)cc(F)c1)N1CCC(O)(C(O)CN2CCC(c3ccc(C(F)(F)F)cc3)CC2)CC1 (stereo not drawn) [Compound 142, 4-hydroxy-4-{1-hydroxy-2-[4-(4-trifluoromethyl-phenyl)-piperidin-1 yl]-ethyl}-piperidine-1-carboxylic acid (3,5-difluoro-phenyl)-amide] | 68%
6.59 | 5.89 | 6.77 |  | O=C(/C=C/c1ccc(F)c(F)c1)N1CCC(O)(C(O)CN2CCC(c3ccc(C(F)(F)F)cc3)CC2)CC1 (stereo not drawn) [Compound 137] | 
6.68 | 6.09 | 7.22 |  | O=C(/C=C/c1cc(F)cc(F)c1)N1CCC(O)(C(O)CN2CCC(c3ccc(C(F)(F)F)cc3)CC2)CC1 (stereo not drawn) [Compound 138] | 
6.82 | 5.72 | 6.92 |  | O=C(/C=C/c1cc(F)cc(F)c1)N1CCC(O)(C(O)CN2CCC(c3c[nH]c4ccc(F)cc34)CC2)CC1 (stereo not drawn) [Compound 157] | 
7.05 |  | 7.15 | 5.37 | COc1ccc(C2CCN(CC(O)C3CCN(C(=S)Nc4ccc(Br)c(F)c4)CC3)CC2)cc1 (stereo not drawn) [Compound 110, 4-{1-hydroxy-2-[4-(4-methoxy-phenyl)-piperidin-1-yl]-ethyl}-piperidine-1-carbothioic acid (4-bromo-3-fluoro-phenyl)-amide] | 
7.30 | 6.05 | 6.92 |  | O=C(Nc1ccc(Cl)c(Cl)c1)N1CCC(O)(C(O)CN2CCC(c3ccc(Cl)cc3)CC2)CC1 (stereo not drawn) [Compound 165, 4-{2-[4-(4-chloro-phenyl)-piperidin-1-yl]-1-hydroxy-ethyl}-4-hydroxy-piperidine-1-carboxylic acid (3,4-dichloro-phenyl)-amide] | 
6.96 | 5.72 | 6.52 |  | O=C(/C=C/c1cc(F)c(F)c(F)c1)N1CCC(O)(C(O)CN2CCC(c3ccc(F)cc3)CC2)CC1 (stereo not drawn) [Compound 128] | 
7.40 | 6.29 | 6.80 |  | O=C(/C=C/c1cc(Cl)cc(Cl)c1)N1CCC(O)(C(O)CN2CCC(c3c[nH]c4ccc(N5CCOCC5)cc34)CC2)CC1 (stereo not drawn) [Compound 151] | 
